From patent publication US20220380829A1, “Method of Diagonosizing Pathogens and their Antimicrobial Susceptibility” (HANGZHOU DIAN MEDICAL LABORATORY CO., LTD., priority 2019, published 2022)

Tested on: Candida tropicalis
Experiment: Broth microdilution (M27-A3, M27-S4), gold standard culture-based AST
Format: cell-based

Measured: Resistance profiles by broth microdilution (the gold standard)

OC(Cn1cncn1)(Cn1cncn1)c1ccc(F)cc1F [FLU]
S: blind-2 | blind-5 | blind-6
R: blind-1 | blind-3 | blind-4
